Assay results as given in PMC6003355 (2018).

System: WT T. oceani 112 ilvE RNA (RNA, riboswitch) GGAAGUGUACCUUAGGGUUCCGGCCAUAAGGCGUCAGCGACCGAGCGGUACAAUCCGGGGAAACCCGGAACACCGUGAGCAUAAAAGGCUCCAGCGGCAAGUUCCUAAAAGA
Assay: in-line probing
Details: apparent; ppGpp 200 pM to 5 µM

KD: ~ 10 nM
SMILES: Nc1nc2c(ncn2[C@@H]2O[C@H](COP(=O)(O)OP(=O)(O)O)[C@@H](OP(=O)(O)OP(=O)(O)O)[C@H]2O)c(=O)[nH]1
